The source of these data is patent publication US12240870B2, “Sequencing method for CAR T cell therapy” (Purdue Research Foundation, priority 2018, dated 2025).

“Also recorded” adds a separate entry of the source.

The subject of one data set is THP1-FRβ xenografts. The data set can be described thus: THP1-FRβ AML intravenous xenograft, E2 CAR-T cells plus EC17. The class given is in vivo, NSG mice. The procedure:
Panel A: Schematic diagrams to show dose scheduling of EC17 plus unsorted EGFRt CAR-T cells (˜6 million, day 0) in NSG mice with 1-day-old intravenous THP1-FRβ xenografts. Starting 3 days after CAR-T cell injection, EC17 was dosed in 3 different ways: EC17 SIW 500 nmol/kg ([…] on days 3, 10, 17, 24, 31, and 38), EC17 TIW 5/50/500 nmol/kg (3 repeats of 5/50/500 nmol/kg on Monday/Wednesday/Friday followed by a 9-day break, i.e. on days 3/5/7, 17/19/21 and 31/33/35), or EC17 M/Th/M_dose escalation on Monday/Thursday/Monday (3 escalation cycles at 5/10/100 nmol/kg in Cycle 1, 5/30/300 nmol/kg in Cycle 2, and 5/50/500 nmol/kg in Cycle 3, i.e. on days 3/6/10, 17/20/24, and 31/34/38). Panel B: Measurements of change in body weight (n=5). Panel C: Circulating CAR-T cells as human CD3ε+ EGFRt+ events found per 100 μL of mouse whole blood on a logarithmic scale on day 31. Panel D: Left bar graph: circulating tumor cells (GFP+) per 100 μL of whole blood in all cohorts measured at the end of study (day 39); Middle bar graph: THP1-FRβ infiltrated liver weights representing liver metastatic burden; Right bar graph: total tumor weights of all non-liver macrometastases. Panel E: Flow cytometric analysis of T-cell exhaustion markers, PD1, LAG3, TIM3, on preinfusion CAR-T cell product (triple-negative) and tumor-infitrating CAR-T cells isolated from liver metastases. A cardinal feature of fully exhausted T cells is co-expression of multiple inhibitory receptor markers (i.e. triple-positive).
One objective of this E2-CAR T-cell study was to test EC17/E2 CAR-T cell activity and related toxicity (e.g. sCRS) using multiple dosing regimens starting 3 days after CAR-T infusion. Three different EC17 dosing regimens include (a) once-a-week (SIW) at 500 nmol/kg, (b) “TIW-like” at 5, 50, and 500 nmol/kg on Monday/Wednesday/Friday with 9-day intervals, and (c) “TIW-like” at […] on Monday/Thursday/Monday with 7-day intervals.
THP-1-FRβ AML tumor cells were grown in folate-deficient RPMI 1640 with 5-10% FBS at 37° C. in a 5% CO2 humidified atmosphere. THP-1-FRβ tumor cells in serum-free folate-deficient RPMI1640 medium were i.v. injected at 5×10^6 cells per animal.
Anti-FITC E2 scFv-CAR T cells were frozen in a T-cell freezing medium. Upon arrival, vials of frozen CAR-T cells were immediately stored at −80° C. The CAR-T cells were quickly thawed at 37° C., washed twice with CAR-T cell culture medium, and used for animal injection at 6 million viable EGFRt+ E2 CAR-T cells (CD4/CD8 at ˜1:1) per animal. A small aliquot was taken on the day infusion for flow cytometric analysis of E2-CAR T-cell phenotypes.
EC17 and bis-EDA-FITC dosing solutions were prepared when dosing began by weighing appropriate amounts of each compound, reconstituting in PBS, pH 7.4, sterile filtering the drug solution through a 0.22 μm PVDF syringe filter, and freezing aliquots for each day of dosing at −20° C.
All EC17 doses were given towards the end of day (3-4 PM) to allow potential CRS (cytokine release syndrome) to develop overnight. In the following morning, animals were scored according to a CRS grading system (see below).
Daily body weight measurement on the days after EC17 dose is required. Attention was given to gross animal morphology and behavior. Euthanasia was performed if mice lose a lot of weight in a short duration or when mice are approaching moribund conditions per CRS grading system or neurotoxicity.
Whole blood cell analysis: Plasma was removed from predetermined volumes of whole EDTA treated blood and RBCs were lysed with RBC lysis solution. […]

In the next data set the target is T1, FRβ (CHO-β) (Homo sapiens, UniProt P14207).
T1 construct: expressed in transfected cells; host or cells: CHO (Chinese hamster ovary) cells
The data set can be described thus: 3H-EC17 cell-based radioligand binding assay on CHO-β cells. The settings on record: 2 h at 37° C. The procedure: FIG. 10, Panel A: Kd values of ^3H-EC17 uptake by FR+ target cells after a 2 hour incubation at 37° C. (calculated from the numbers of molecules bound per cell). Panel B: Kd value of ^3H^−EC17 uptake by E2-CAR-T cells (˜24% EGFRt+, ˜95:5 CD8/CD4 ratio) after a 2 hour incubation at room temperate (calculated from total cell-associated radioactivity, DPM).
The bispecific affinities of EC17 CAM (a CAM is equivalent to a “bridge” or the “compound” in this application) were assessed using ^3H-EC17 in cell-based radioligand binding assays. […] The whole cell lysates were quantitated for the level of radioactivity and cellular protein content by standard Pierce BCA protein assay. The number of ^3H-EC17 molecules bound per cell was calculated to determine the dissociation constants (Kd) for FRα (KB) and FRβ (CHO-β) respectively (FIG. 10).
The EC17 has already been tested in the clinic for immunotherapy and optical imaging purposes. To directly quantify its bispecific binding affinities, ^3H-EC17 was synthesized and radioligand binding assays were carried out on KB and CHO-β cell lines representing FRα+ and FRβ+ target cells, respectively, and on unsorted EGFRt CAR-T cells representing the effector cells.

T1 sequence (P14207 17-230): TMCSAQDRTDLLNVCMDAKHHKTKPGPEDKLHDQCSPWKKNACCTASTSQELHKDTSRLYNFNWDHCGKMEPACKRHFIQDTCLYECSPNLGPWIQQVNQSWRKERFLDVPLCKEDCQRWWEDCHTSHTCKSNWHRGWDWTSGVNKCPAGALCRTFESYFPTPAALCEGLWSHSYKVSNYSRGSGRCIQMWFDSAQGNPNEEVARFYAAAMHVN

One may read the Kd as the concentration at which binding is half-saturated. A lower Kd goes with higher affinity. Turning to `Nc1nc2ncc(CNc3ccc(C(=O)N[C@@H](CCC(=O)NCCNC(=S)Nc4ccc(-c5c6ccc(=O)cc-6oc6cc(O)ccc56)c(C(=O)O)c4)C(=O)O)cc3)nc2c(=O)[nH]1` [EC17, FA-(γ)-ethylenediamine-FITC], the non-liver macrometastases result in the data set on THP1-FRβ xenografts (EC17 SIW 500 nmol/kg) and in the data set on THP1-FRβ xenografts (EC17 TIW 5/50/500 nmol/kg on/off) was “successfully controlled non-liver macrometastases” throughout. Also, the CRS grade in the data set on THP1-FRβ xenografts (EC17 SIW 500 nmol/kg (Cohort 3)) is given as 1-2. In addition, in the data set with THP1-FRβ xenografts (EC17 TIW 5/50/500 nmol/kg on/off (Cohort 4)), the “overall anti-tumor activity / THP1-FRβ tumor burden, comparison of regimens” value is “best anti-tumor activity among the three different EC17 dose schedules; also recorded: trended to be the best regimen for reducing overall THP1-FRβ tumor burden”. For the same compound, in the data set with THP1-FRβ xenografts (all three EC17 dosing regimens, day 39), the “circulating THP1-FRβ tumor cells (GFP+) per 100 μL whole blood” value is “significant reduction in circulating THP1 cell burden; also recorded: effectively reduced circulating THP1-FRβ tumor cells in the blood”. In addition, in the data set on THP1-FRβ xenografts (any EC17 treated cohort (SIW, TIW, M/Th/M)), the “severe CRS (grades ≥3)” value is recorded as “no severe CRS”. The body weight loss entry in the data set on THP1-FRβ xenografts (~6 million E2 CAR-T + EC17 SIW 500 nmol/kg (Cohort 3)) is reported as “EC17 dose-dependent body weight loss after each EC17 dose; also recorded: some body weight loss”; in the data set on THP1-FRβ xenografts (~6 million E2 CAR-T + EC17 TIW 5/50/500 nmol/kg M/W/F, 9-day break (Cohort 4)), “mildest body weight loss among three treatment groups; also recorded: least body weight loss”. The compound also displayed a Kd at FRβ (CHO-β) of 0.8 nM.
